pIC50: −log10 of the molar value.
Legend:
[1] = tested on: RS4;11 cells; assay: Cell proliferation assay, RS4;11 cells (MTS, 72 h); type: cell-based; settings: Homo sapiens, RS4;11 cell proliferation
Procedure: MTS testing kit was purchased from Promega. The RPMI-1640, Fetal bovine serum and Penicillin-Streptomycin were purchased from Gibco. Dimethyl sulfoxide (DMSO) was purchased from Sigma.
To investigate whether a compound is able to inhibit the activity of Bcl-2 in cells, a mechanism-based assay using RS4;11 (ATCC® CRL-1873™) cell was developed. In this assay, inhibition of Bcl-2 was detected by the inhibition of RS4;11 cells proliferation. RS4;11 cells were cultured in culture flasks to 40-80% confluence in RPMI-1640 plus 10% fetal bovine serum. Cells were collected and plated onto 96-well plates at desired cell density (30000 cells/well). Plates were incubated overnight at 37° C., with 5% CO2 to adhere. Compounds were added to the plates, and the final compound concentrations were 10000, 3333, 1111, […], 41, 14, 4.6 and 1.5 nM. Plates plated with RS4;11 cells were placed at 37° C., with 5% CO2 for 72 h. 20 μl MTS/100 μl medium mixture solution were added to each well and incubate the plates for exactly 2 hours. The reaction was stopped by adding 25 μl 10% SDS per well. Measure absorbance at 490 nm and 650 nm (reference wavelength). IC50 was calculated using GraphPad Prism 5.0.

[2] = tested on: DoHH2 cells; assay: Cell proliferation assay, DoHH2 cells (MTS, 120 h); type: cell-based; settings: Homo sapiens, DOHH-2
Procedure: MTS testing kit was purchased from Promega (Madison, Wis., USA). The RPMI-1640, Fetal bovine serum and Penicillin-Streptomycin were purchased from BI (Biological Industries, Beit Haemek, Israel). Dimethyl sulfoxide (DMSO) was purchased from Sigma (St. Louis, Mo., USA). DoHH2 (DSMZ catalog #: ACC47) cells were cultured in RPMI-1640 supplemented with Penicillin-Streptomycin and 10% FBS.
To investigate whether a compound is able to inhibit the activity of BCL-2 in cells, a mechanism-based assay using DoHH2 lines was developed. In this assay, the inhibition of BCL-2 was reflected by the inhibition of cell proliferation of DoHH2 cells. Cells were plated into 96-well plates at the optimized cell density of 5000 cells/well. Plates were incubated at 37° C., with 5% CO2 for 4h. Compounds were serially diluted and added to the plates with the final concentrations of 10000, 3333.3, 1111.1, 370.4, 123.5, 41.2, 13.7, 4.6 and 1.5 nM. Plates were incubated at 37° C., with 5% CO2 for 120 h. 20 μl MTS was added into each well and the plates were incubated at 37° C., with 5% CO2 for exactly 2 h. The absorbance was measured by a microplate reader at 490 nm. IC50 was calculated using GraphPad Prism 5.0 software.

Row | SMILES | pIC50 [1] | pIC50 [2]
1 | O=C(NS(=O)(=O)c1cnc(NCC2CCC(N=S3(=O)CCOCC3)CC2)c([N+](=O)[O-])c1)c1ccc(N2CCC3(CC2)CC(N2CCC[C@@H]2c2ccccc2C2CC2)C3)cc1Oc1cnc2[nH]ccc2c1 (stereo partly drawn) [Example A-23b, (R)-2-((1H-pyrrolo[2,3-b]pyridin-5-yl)oxy)-4-(2-(2-(2-cyclopropyl-phenyl)pyrrolidin-1-yl)-7-azaspiro [3.5]nonan-7-yl)-N-((5-nitro-6-(((4-((4-oxido-1,4λ^6-oxathian-4-ylidene)amino)cyclohexyl)methyl)amino)pyridin-3-yl)sulfonyl) benzamide] | ≥ 9.00 | ≥ 9.00
2 | CC(C)c1ccccc1[C@@H]1CCCN1C1CC2(CCN(c3ccc(C(=O)NS(=O)(=O)c4cnc(NCC5CCOCC5)c([N+](=O)[O-])c4)c(Oc4cnc5[nH]ccc5c4)c3)CC2)C1 [Example A-5a, (5)-2-((1H-pyrrolo[2,3-b]pyridin-5-yl)oxy)-4-(2-(2-(2-isopropyl-phenyl)pyrrolidin-1-yl)-7-azaspiro [3.5]nonan-7-yl)-N-((5-nitro-6-(((tetrahydro-2H-pyran-4-yl)methyl)amino)pyridin-3-yl)sulfonyl) benzamide] | ≥ 9.00 | ≥ 9.00
3 | Cc1nc(NC[C@H]2CC[C@](C)(O)CC2)c([N+](=O)[O-])cc1S(=O)(=O)NC(=O)c1ccc(N2CCC3(CC2)CC(N2CCOC[C@H]2c2ccccc2C(C)C)C3)cc1Oc1cnc2[nH]ccc2c1 (single isomer, unassigned) [Example A-131, 2-((1H-pyrrolo[2,3-b]pyridin-5-yl)oxy)-N-((6-((((1r,4r)-4-hydroxy-4-methylcyclohexyl)methyl)amino)-2-methyl-5-nitropyridin-3-yl)sulfonyl)-4-(2-((R or S)-3-(2-isopropylphenyl)morpholino)-7-azaspiro[3.5]nonan-7-yl) benzamide] | ≥ 9.00 | ≥ 9.00
4 | CCc1ccccc1[C@H]1CCCN1C1CC2(CCN(c3ccc(C(=O)NS(=O)(=O)c4cnc(NCC5CCC(N=S6(=O)CCOCC6)CC5)c([N+](=O)[O-])c4)c(Oc4cnc5[nH]ccc5c4)c3)CC2)C1 (stereo partly drawn) [Example A-21b, (R)-2-((1H-pyrrolo[2,3-b]pyridin-5-yl)oxy)-4-(2-(2-(2-ethylphenyl)pyrrolidin-1-yl)-7-azaspiro[3.5]nonan-7-yl)-N-((5-nitro-6-(((4-((4-oxido-1,4λ^6-oxathian-4-ylidene)amino)cyclohexyl)methyl)amino)pyridin-3-yl)sulfonyl)benzamide] | ≥ 9.00 | ≥ 9.00
5 | O=C(NS(=O)(=O)c1cnc(NCC2C3COCC23)c([N+](=O)[O-])c1)c1ccc(N2CCC3(CC2)CC(N2CCC4C[C@@]42c2ccccc2C2CC2)C3)cc1Oc1cnc2[nH]ccc2c1 (single isomer, unassigned) [Example A-97a, 2-((1H-pyrrolo[2,3-b]pyridin-5-yl)oxy)-N-((6-(((3-oxabicyclo[3.1.0]hexan-6-yl)methyl)amino)-5-nitro-pyridin-3-yl)sulfonyl)-4-(2-((1R or 1S)-1-(2-cyclopropylphenyl)-2-aza-bicyclo[3.1.0]hexan-2-yl)-7-azaspiro [3.5]nonan-7-yl)benzamide] | ≥ 9.00 | ≥ 9.00
6 | CC(C)c1ccccc1[C@@H]1CCCN1C1CC2(CCN(c3ccc(C(=O)NS(=O)(=O)c4cnc(NCC5C6COCC56)c([N+](=O)[O-])c4)c(Oc4cnc5[nH]ccc5c4)c3)CC2)C1 (stereo in doubt) [Example A-27a, 2-((1H-pyrrolo[2,3-b]pyridin-5-yl)oxy)-N-((6-(((3-oxabicyclo[3.1.0]hexan-6-yl)methyl)amino)-5-nitro-pyridin-3-yl)sulfonyl)-4-(2-((5)-2-(2-isopropylphenyl)pyrrolidin-1-yl)-7-azaspiro[3.5]nonan-7-yl) benzamide] | ≥ 9.00 | –
7 | O=C(NS(=O)(=O)c1cnc(NCC2C3COCC23)c([N+](=O)[O-])c1)c1ccc(N2CCC3(CC2)CC(N2CCC[C@H]2c2ccccc2C2CC2)C3)cc1Oc1cnc2[nH]ccc2c1 (stereo partly drawn) [Example A-30a, 2-((1H-pyrrolo[2,3-b]pyridin-5-yl)oxy)-N-((6-(((3-oxabicyclo[3.1.0]hexan-6-yl)methyl)amino)-5-nitro-pyridin-3-yl)sulfonyl)-4-(2-((5)-2-(2-cyclopropylphenyl)pyrrolidin-1-yl)-7-azaspiro[3.5]nonan-7-yl) benzamide] | ≥ 9.00 | –

More lines, main results first:

Row | pIC50 [1] | SMILES | pIC50 [2]
8 | ≥ 9.00 | CC(C)c1ccccc1C1CCCN1C1CC2(CCN(c3ccc(C(=O)NS(=O)(=O)c4cc([N+](=O)[O-])c5c(n4)OC[C@H](C4CCOCC4)N5)c(Oc4cnc5[nH]ccc5c4)c3)CC2)C1 (single isomer, unassigned) [Example B-33, 2-((1H-pyrrolo[2,3-b]pyridin-5-yl)oxy)-4-(2-((R or S)-2-(2-isopropylphenyl)pyrrolidin-1-yl)-7-azaspiro[3.5]nonan-7-yl)-N-(((S)-8-nitro-2-(tetrahydro-2H-pyran-4-yl)-2,3-dihydro-1H-pyrido[2,3-b][1,4]oxazin-6-yl)sulfonyl)benzamide] | ≥ 9.00
9 | ≥ 9.00 | CC(C)c1ccccc1[C@H]1CCCN1C1CC2(CCN(c3ccc(C(=O)NS(=O)(=O)c4cc([N+](=O)[O-])c5c(n4)OC[C@H](Cc4ccccc4)N5)c(Oc4cnc5[nH]ccc5c4)c3)CC2)C1 [Example B-3b, 2-((1H-pyrrolo[2,3-b]pyridin-5-yl)oxy)-N-(((S)-2-benzyl-8-nitro-2,3-dihydro-1H-pyrido[2,3-b][1,4]oxazin-6-yl)sulfonyl)-4-(2-((R)-2-(2-isopropylphenyl)pyrrolidin-1-yl)-7-azaspiro[3.5]nonan-7-yl) benzamide] | ≥ 9.00
10 | ≥ 9.00 | O=C(NS(=O)(=O)c1cc([N+](=O)[O-])c2c(n1)OC[C@H](C1CC1)N2)c1ccc(N2CCC3(CC2)CC(N2CCCC2c2ccccc2C2CC2)C3)cc1Oc1cnc2[nH]ccc2c1 (single isomer, unassigned) [Example B-52, 2-((1H-pyrrolo[2,3-b]pyridin-5-yl)oxy)-N-(((S)-2-cyclopropyl-8-nitro-2,3-dihydro-1H-pyrido[2,3-b] [1,4]oxazin-6-yl)sulfonyl)-4-(2-((R or S)-2-(2-cyclopropylphenyl)pyrrolidin-1-yl)-7-azaspiro[3.5]nonan-7-yl)benzamide] | ≥ 9.00
11 | ≥ 9.00 | CC(C)c1ccccc1[C@@H]1CCCN1C1CC2(CCN(c3ccc(C(=O)NS(=O)(=O)c4cc([N+](=O)[O-])c5c(n4)OC[C@H]([C@H]4CC[C@](C)(O)CC4)N5)c(Oc4cnc5[nH]ccc5c4)c3)CC2)C1 (single isomer, unassigned) [Example B-34, 2-((1H-pyrrolo[2,3-b]pyridin-5-yl)oxy)-N-(((S)-2-((1r,4S)-4-hydroxy-4-methylcyclohexyl)-8-nitro-2,3-dihydro-1H-pyrido[2,3-b] [1,4]oxazin-6-yl)sulfonyl)-4-(2-((R or S)-2-(2-isopropylphenyl)pyrrolidin-1-yl)-7-azaspiro[3.5]nonan-7-yl)benzamide] | ≥ 9.00
12 | ≥ 9.00 | CC(C)c1ccccc1[C@@H]1COCCN1C1CC2(CCN(c3ccc(C(=O)NS(=O)(=O)c4cc([N+](=O)[O-])c5c(n4)OC[C@H]([C@H]4CC[C@](C)(O)CC4)N5)c(Oc4cnc5[nH]ccc5c4)c3)CC2)C1 (single isomer, unassigned) [Example B-47, 2-((1H-pyrrolo[2,3-b]pyridin-5-yl)oxy)-N-(((S)-2-((1r,4S)-4-hydroxy-4-methylcyclohexyl)-8-nitro-2,3-dihydro-1H-pyrido[2,3-b][1,4]oxazin-6-yl)sulfonyl)-4-(2-((R or S)-3-(2-isopropylphenyl)morpholino)-7-azaspiro[3.5]nonan-7-yl) benzamide] | ≥ 9.00
13 | ≥ 9.00 | CC(C)c1ccccc1[C@H]1CCCN1C1CC2(CCN(c3ccc(C(=O)NS(=O)(=O)c4cc([N+](=O)[O-])c(NCC5CCOCC5)cn4)c(Oc4cnc5[nH]ccc5c4)c3)CC2)C1 [Example B-4b, (R)-2-((1H-pyrrolo[2,3-b]pyridin-5-yl)oxy)-4-(2-(2-(2-isopropylphenyl)pyrrolidin-1-yl)-7-azaspiro [3.5]nonan-7-yl)-N-((4-nitro-5-(((tetrahydro-2H-pyran-4-yl)methyl)amino)pyridin-2-yl)sulfonyl) benzamide] | ≥ 9.00
